Counter-ions that a name gives are not always drawn.
Columns and labels:
[1] = molecular target: T1, proMMP9(67-444;ΔFnII) (SEQ ID NO:5) (Homo sapiens, UniProt P14780, DEL216-390); test: ThermoFluor binding assay with proMMP9(67-444;ΔFnII)
T1 construct: amino acid pairs including: 29-215/391-444, 67-215/391-444, and 20-215/391-445, respectively; start methionine (N); made in house; host or cells: E. coli BL21(DE3) RIL
T1 sequence (P14780 with tags, fused parts or gaps DEL216-390): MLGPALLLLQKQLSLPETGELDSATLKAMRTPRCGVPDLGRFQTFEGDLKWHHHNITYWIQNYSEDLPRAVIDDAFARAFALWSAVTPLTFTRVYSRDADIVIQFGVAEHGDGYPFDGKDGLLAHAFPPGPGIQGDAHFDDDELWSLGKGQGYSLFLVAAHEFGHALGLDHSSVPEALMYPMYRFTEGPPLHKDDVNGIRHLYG
Procedure: (§1) The experiments were carried out using instruments available from Johnson & Johnson Pharmaceutical Research & Development, LLC. TF dye used in all experiments was […] (1,8-ANS) (Invitrogen: A-47).
(§2) Columns 12 and 24 were used as DMSO reference and contained no compound. […] Following compound dispense, protein and dye solutions were added to achieve the final assay volume of 3 μL.
(§3) Assay plates were robotically loaded onto a thermostatically controlled PCR-type thermal block and then heated from 40 to 90° C. at a ramp-rate of 1° C./min for all experiments. Fluorescence was measured by continuous illumination with UV light (Hamamatsu LC6) supplied via fiber optics and filtered through a band-pass filter (380-400 nm; >6 OD cutoff). Fluorescence emission of the entire 384-well plate was detected by measuring light intensity using a CCD camera (Sensys, Roper Scientific) filtered to detect 500±25 nm, resulting in simultaneous and independent readings of all 384 wells.
(§4) Thermodynamic parameters necessary for fitting compound binding for each proMMP were estimated by differential scanning calorimetry (DSC) and from ThermoFluor® data. The heat capacity of unfolding for each protein was estimated from the molecular weight and from ThermoFluor® dosing data.
The protein sample preparations had to include a desalting buffer exchange step via a PD-10 gravity column (GE Healthcare).

[2] = molecular target: T2, proMMP9(20-445;ΔFnII) (SEQ ID NO:6) (Homo sapiens, UniProt P14780, DEL216-390); test: ThermoFluor binding assay with proMMP9(20-445;ΔFnII)
T2 construct: amino acid pairs including: 29-215/391-444, 67-215/391-444, and 20-215/391-445, respectively; start methionine (N); made in house; host or cells: E. coli BL21(DE3) RIL
T2 sequence (P14780 with tags, fused parts or gaps DEL216-390): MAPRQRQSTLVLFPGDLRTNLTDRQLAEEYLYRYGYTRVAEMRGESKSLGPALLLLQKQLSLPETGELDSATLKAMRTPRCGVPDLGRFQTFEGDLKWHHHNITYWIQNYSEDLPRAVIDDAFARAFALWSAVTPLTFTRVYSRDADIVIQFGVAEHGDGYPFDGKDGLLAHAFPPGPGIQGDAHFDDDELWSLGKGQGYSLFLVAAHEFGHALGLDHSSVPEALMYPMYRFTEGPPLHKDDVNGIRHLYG
Procedure: as §1, §2, §3, §4
The protein sample preparations included a desalting buffer exchange step via a PD-10 gravity column (GE Healthcare).

[3] = molecular target: full-length proMMP9(1-707) activation by catalytic MMP3 (Homo sapiens, UniProt P14780, R574P); test: ProMMP9/MMP3 DQ Gelatin Activation Assay;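 further: readout is fluorescence of quenched fluorescein gelatin cut by activated MMP9, 30 min activation at 37 °C, inhibition relative to DMSO-only controls with EDTA as blank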; type: biochemical; parameters: made in house; host or cells: COS-1 (proMMP9); E. coli (MMP3); details: proMMP9 from COS-1 cells; read-out: ProMMP9/MMP3 DQ gel, IC50
full-length proMMP9(1-707) activation by catalytic MMP3, sequence (P14780 20-707 R574P): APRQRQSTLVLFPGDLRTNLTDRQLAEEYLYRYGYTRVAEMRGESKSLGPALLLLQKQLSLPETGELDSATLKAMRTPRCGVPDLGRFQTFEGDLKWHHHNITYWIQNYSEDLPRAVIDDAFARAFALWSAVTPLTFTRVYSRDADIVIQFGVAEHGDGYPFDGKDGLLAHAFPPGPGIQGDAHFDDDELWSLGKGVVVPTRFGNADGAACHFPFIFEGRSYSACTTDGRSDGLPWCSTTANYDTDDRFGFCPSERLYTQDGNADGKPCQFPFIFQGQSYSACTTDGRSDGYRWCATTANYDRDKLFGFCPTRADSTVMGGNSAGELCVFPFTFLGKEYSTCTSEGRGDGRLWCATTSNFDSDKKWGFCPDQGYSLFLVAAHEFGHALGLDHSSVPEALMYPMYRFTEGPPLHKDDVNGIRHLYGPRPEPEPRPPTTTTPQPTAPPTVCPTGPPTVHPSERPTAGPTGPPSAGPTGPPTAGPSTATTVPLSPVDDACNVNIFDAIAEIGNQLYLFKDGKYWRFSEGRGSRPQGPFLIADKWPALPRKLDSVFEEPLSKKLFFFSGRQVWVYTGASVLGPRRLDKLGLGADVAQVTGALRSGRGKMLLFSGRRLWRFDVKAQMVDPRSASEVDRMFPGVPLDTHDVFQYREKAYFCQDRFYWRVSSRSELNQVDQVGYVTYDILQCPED

Row | Molecule | Kd [1] | Kd [2] | IC50 [3]
1 | CC(=O)Nc1nc(C)c(-c2csc(Nc3ccccc3OCC3CC3)n2)s1 [Example 19, N-[2-(2-Cyclopropylmethoxy-phenylamino)-4′-methyl-[4,5′]bithiazolyl-2′-yl]-acetamide.TFA] | 3.86 µM | > 52 µM | –
2 | c1cncc(-c2csc(Nc3ccccc3OCc3cccs3)n2)c1 [Example 24, (4-Pyridin-3-yl-thiazol-2-yl)-[2-(thiophen-2-ylmethoxy)-phenyl]-amine.TFA] | > 38 µM | 0.37 µM | > 20 µM
3 | COc1ccccc1Nc1nc(-c2cnccc2C)cs1 [Example 29, (2-Methoxy-phenyl)-[4-(4-methyl-pyridin-3-yl)-thiazol-2-yl]-amine.TFA] | – | – | 14.4 µM
4 | CC(=O)Nc1nc(C)c(-c2csc(Nc3ccccc3OC(F)(F)F)n2)s1 [Example 31, N-[4′-Methyl-2-(2-trifluoromethoxy-phenylamino)-[4,5′]bithiazolyl-2′-yl]-acetamide.HCl] | 0.645 µM | 3.34 µM | 3.3 µM
5 | CC(=O)Nc1nc(C)c(-c2csc(Nc3ccccc3C(F)(F)F)n2)s1 [Example 32, N-[4′-Methyl-2-(2-trifluoromethyl-phenylamino)-[4,5′]bithiazolyl-2′-yl]-acetamide.TFA] | 9.06 µM | > 9.2 µM | > 20 µM
6 | CSc1ccccc1Nc1nc(-c2sc(NC(C)=O)nc2C)cs1 [Example 33, N-[4′-Methyl-2-(2-methylsulfanyl-phenylamino)-[4,5′]bithiazolyl-2′-yl]-acetamide.HCl] | 0.695 µM | 3.75 µM | 2.9 µM
7 | CC(=O)Nc1nc(C)c(-c2csc(Nc3ccccc3Cl)n2)s1 [Example 39, N-[2-(2-Chloro-phenylamino)-4′-methyl-[4,5′]bithiazolyl-2′-yl]-acetamide.HCl] | 2.49 µM | 6.35 µM | 17.1 µM
8 | COc1ccc(Nc2nc(-c3sc(N)nc3C)cs2)c(OC)c1 [Example 48, N^2-(2,4-Dimethoxy-phenyl)-4′-methyl-[4,5′]bithiazolyl-2,2′-diamine] | 4.73 µM | 17.5 µM | –
9 | COc1ccccc1Nc1nc(C2(C)CC3(CC(C)OC3=O)C(=O)O2)cs1 (stereo not shown) [Example 49, 3-[2-(2-Methoxy-phenylamino)-thiazol-4-yl]-3,8-dimethyl-2,7-dioxa-spiro[4.4]nonane-1,6-dione] | 8.7 µM | > 17 µM | 5.7 µM
10 | COc1ccc(OC)c(Nc2nc(-c3c(C)nc4ccccn34)cs2)c1 [Example 51, (2,5-Dimethoxy-phenyl)-[4-(2-methyl-imidazo[1,2-a]pyridin-3-yl)-thiazol-2-yl]-amine] | > 15 µM | > 16 µM | 10.1 µM
11 | COc1ccc(Cl)cc1Nc1nc(-c2cccnc2)cs1 [Example 56, (5-Chloro-2-methoxy-phenyl)-(4-pyridin-3-yl-thiazol-2-yl)-amine] | 14.6 µM | > 70 µM | > 20 µM
12 | CCOc1ccccc1Nc1nc(-c2sc(NC(C)=O)nc2C)cs1 [Example 66, N-[2-(2-Ethoxy-phenylamino)-4′-methyl-[4,5′]bithiazolyl-2′-yl]-acetamide] | > 6.1 µM | > 6.1 µM | 1.9 µM

Other lines, results leading:

Row | Kd [1] | Kd [2] | IC50 [3] | Molecule
13 | > 81 µM | 19 µM | – | Cc1nc(C)c(-c2csc(Nc3cccc(C(N)=O)c3)n2)s1 [Example 9, 3-(2′,4′-Dimethyl-[4,5′]bithiazolyl-2-ylamino)-benzamide]
14 | 5.53 µM | > 35 µM | 26.2 µM | COc1ccc(Nc2nc(-c3sc(NC(C)=O)nc3C)cs2)c(OC)c1 [Example 23, N-[2-(2,4-Dimethoxy-phenylamino)-4′-methyl-[4,5′]bithiazolyl-2′-yl]-acetamide.TFA]
15 | 16.3 µM | 12.5 µM | > 20 µM | CCCOc1ccccc1Nc1nc(-c2cccnc2)cs1 [Example 25, (2-Propoxy-phenyl)-(4-pyridin-3-yl-thiazol-2-yl)-amine]
16 | 3.92 µM | 10.3 µM | 7 µM | CNc1nc(C)c(-c2csc(Nc3ccccc3OC)n2)s1 [Example 35, N^2-(2-Methoxy-phenyl)-4′,N^2′-dimethyl-[4,5′]bithiazolyl-2,2′-diamine]
17 | > 11 µM | > 11 µM | 1.7 µM | COc1ccccc1Nc1nc(-c2sc(N(C)C(C)=O)nc2C)cs1 [Example 36, N-[2-(2-Methoxy-phenylamino)-4′-methyl-[4,5′]bithiazolyl-2′-yl]-N-methyl-acetamide.TFA]
18 | > 8.3 µM | > 8.3 µM | 9.6 µM | CCNc1nc(C)c(-c2csc(Nc3ccccc3OC)n2)s1 [Example 38]
19 | 16.3 µM | > 18 µM | > 20 µM | CC(=O)Nc1nc(C)c(-c2csc(Nc3ccccc3F)n2)s1 [Example 40, N-[2-(2-Fluoro-phenylamino)-4′-methyl-[4,5′]bithiazolyl-2′-yl]acetamide.TFA]
20 | 4.05 µM | > 14 µM | 21.2 µM | COc1ccccc1Nc1nc(-c2sc(NC(=O)c3ccccc3)nc2C)cs1 [Example 50, N-[2-(2-Methoxy-phenylamino)-4′-methyl-[4,5′]bithiazolyl-2′-yl]-benzamide]
21 | 17.9 µM | > 65 µM | 16.1 µM | COc1ccc(OC)c(Nc2nc(-c3cccnc3)cs2)c1 [Example 54, (2,5-Dimethoxy-phenyl)-(4-pyridin-3-yl-thiazol-2-yl)-amine]
22 | 5.13 µM | 19.6 µM | 28.2 µM | CC(=O)Nc1nc(C)c(-c2csc(Nc3ccccc3C)n2)s1 [Example 63, N-(4′-Methyl-2-o-tolylamino-[4,5′]bithiazolyl-2′-yl)-acetamide]
23 | > 15 µM | > 15 µM | 11.2 µM | COc1ccccc1Nc1nc(C2(C)CC3(CC(C)(C)OC3=O)C(=O)O2)cs1 (stereo not shown) [Example 69, 3-[2-(2-Methoxy-phenylamino)-thiazol-4-yl]-3,8,8-trimethyl-2,7-dioxa-spiro[4.4]nonane-1,6-dione]
24 | 6.56 µM | 11.7 µM | 6.9 µM | CCOc1ccccc1Nc1nc(-c2cnc3ncccn23)cs1 [Example 71, (2-Ethoxy-phenyl)-(4-imidazo[1,2-a]pyrimidin-3-yl-thiazol-2-yl)-amine]
25 | > 58 µM | 6.53 µM | 3.1 µM | (5-Chloro-2-methoxy-phenyl)-(4-imidazo[1,2-a]pyrazin-3-yl-thiazol-2-yl)-amine [Example 72]

Reference: patent publication US20120302573A1, “METHODS OF INHIBITING PRO MATRIX METALLOPROTEINASE ACTIVATION” (priority 2011, published 2012)
